From US9963472B2, “Stable pantetheine derivatives for the treatment of pantothenate kinase associated neurodegeneration (PKAN) and methods for the synthesis of such compounds” (ACIES BIO D.O.O., priority 2013, dated 2018)

Legend:
protein acetylation = experiment: Rescue of protein acetylation defect in PKAN models; format: cell-based
From the text: For a variety of diseases HDAC inhibitors are being used and specifically the valproic acid is currently used in diseases ranging from cancer, to epilepsy, to neurodegeneration. The disadvantage is that valproic acid has severe side effects.

[1] = system: dPANK/fbl down-regulated Drosophila-S2 cells; experiment: Rescue of cell survival in dPANK/fbl RNAi Drosophila S2 cells (PKAN cell model); format: cell-based; conditions: 100 μM; for rescue of cell count defect (cell survival): triplicate
From the text: The down-regulation of […] ortholog in Drosophila) using RNAi approach in Drosophila S2 cells is an established in-vitro PKAN disease model (Rana, A. et al., PNAS, 2010, 107, 6988; Siudja et al., EMBO Mol med. 2011, 3, 755; Siudeja et al., PLoS One 2012, 7, e443145). Down-regulation of dPANK/fbl by RNAi, causes a decrease in the survival of cells. […] Materials and Methods: […]

[2] = system: HEK293 cells treated with HOPAN; experiment: Rescue of HEK293 cells in HOPAN induced PKAN model; format: cell-based, human; conditions: 100 μM, HOPAN 0.5 mM, 4 days, HEK293, vitamin B5 deficient DMEM
Protocol: Similar to Drosophila-S2 cells, the PKAN disease model can also be induced using HOPAN in mammalian cell lines. Rescue efficiency of (S)-acetyl-4′-phosphopantetheine and 4′-phosphopantetheine was studied in HOPAN induced PKAN model system, namely in mammalian HEK293 cells.
Materials and Methods: HEK293 cells were cultured in vitamin B5 deficient DMEM (Thermo Scientific) supplemented with 10% dialysed FCS (Thermo Scientific) with and without HOPAN (0.5 mM) and (S)-acetyl-4′-phosphopantetheine and 4′-phosphopantetheine for 4 days. 100 μM of (S)-acetyl-4′-phosphopantetheine and 4′-phosphopantetheine was compared for its rescue efficiency.

Human HEK293 cells = experiment: Cellular toxicity (drop in cell counts) in HEK293 cells; format: cell-based; conditions: increasing concentrations
[3] = system: Drosophila-S2 cells treated with HOPAN; experiment: Rescue in HOPAN assay, Drosophila S2 cells; format: cell-based; conditions: 100 μM, HOPAN 0.5 mM, two days
Protocol: In an additional experiment, Drosophila-S2 cells treated with the chemical inhibitor HOPAN (hopanthenate, CAS 17097-76-6, IUPAC: calcium 4-[[(2R)-2,4-dihydroxy-3,3-dimethylbutanoyl]amino]butanoate). Cells treated with HOPAN also serve as a model for PKAN. Cells treated with HOPAN also show a reduction in cell viability.
Materials and Methods: Drosophila Schneider's S2 cells were cultured and subjected to HOPAN (0.5 mM) treatment with and without (S)-acetyl-4′-phosphopantetheine and 4′-phosphopantetheine for two days (Siudeja. K. et al., EMBO Mol Med. 2011, 3, 755). 100 μM of (S)-acetyl-4′-phosphopantetheine and 4′-phosphopantetheine was compared for its rescue efficiency.

Molecule | rescue of protein acetylation defect (protein acetylation) | rescue of cell count defect (cell survival) [1] | reduction of HOPAN induced cell count defect [2] | toxicity (drop in cell counts) (Human HEK293 cells) | rescue potential compared to the other compounds [1] | rescue of HOPAN induced cell count defect [3]
CCCC(CCC)C(=O)O [valproic acid] | rescue the protein acetylation defect |  |  |  |  | 
CC(C)(COP(=O)(O)O)[C@@H](O)C(=O)NCCC(=O)NCCS [4′-phosphopantetheine] |  | rescued the cell count defect significantly | significantly reduced the HOPAN induced cell count defect | less toxic compared to pantethine |  | 
(S)-acetyl-4′-phosphopantetheine |  | rescued the cell count defect significantly | significantly reduced the HOPAN induced cell count defect | less toxic compared to pantethine | superior rescue potential as compared to pantethine and 4′-phosphopantetheine | significantly rescued
CC(/C=C/C(=O)NO)=C\[C@@H](C)C(=O)c1ccc(N(C)C)cc1 [Trichostatin A] | rescue the protein acetylation defect |  |  |  |  | 
